Data from patent US10668049B2, “Methods of treating cognitive decline with transforming growth factor beta inhibitors” (The Regents of the University of California, priority 2008, dated 2020).

System: Smad2
Test: Smad2-P Western blot of cortical lysates after in vivo albumin treatment
Set-up: species or system rat
Conditions: animals exposed for 48 hours, compared to sham-operated controls
Method: All experimental procedures were approved by the ethical committees dealing with experiments on animals at Charité University Medicine, Berlin and Ben-Gurion University of the Negev, Beer-Sheva. The in vivo experiments were performed as previously described (ivens et al., 2007; Seiffert et al., 2004). Adult male Wistar rats were treated with artificial cerebrospinal fluid (aCSF, composition in mM: 129 NaCl, 21 NaHCO3, 1.25 NaH2PO4, 1.8 MgSO4, 1.6 CaCl2, 3 KCl, 10 glucose) supplemented with deoxycholic acid (DOC, 2 mM, Sigma-Aldrich, Steinheim, Germany), bovine serum albumin (BSA, 0.1 mM. Merck, Darmstadt, Germany) corresponding to 25% of serum albumin concentration, or with TGF-β1 (10 ng/ml, Peprotech, Rocky Hill, N.J.). Sham-operated animals (perfused with aCSF) served as controls. […] Animals were sacrificed 7/8, 24, or 48 hours following treatment. […]
To determine whether albumin binds to TGF-β receptors, co-immunoprecipitation using antibodies against albumin or TGF-βRII was performed on cortical lysate samples treated with albumin. An expected hand corresponding to TGF-βRII was detected in samples immunoprecipitated with the TGF-βRII antibody. More importantly, this band was also detected in samples pre-incubated with albumin when immunoprecipitated with the albumin antibody and probed for TGF-βRII (FIG. 2a). […]

albumin: bovine serum albumin, used to induce epileptogenesis
Smad2 phosphorylation levels in cortical lysates: increase in Smad2 phosphorylation
